MIC data for three sequences are collected here from publication PMC5057115, “Cathelicidins in the Tasmanian devil (Sarcophilus harrisii)” (Scientific Reports, 2016).

Where no end group is shown, it is not given here.

In one assay the test system is E. coli ATCC 25922. Nature of the assay: microbe, parasite or virus in culture. It is filed as cell-based, Escherichia coli. The following applies: ATCC 25922, 24 h. As for the experimental part:
(§1) Tissue expression of devil cathelicidin prepropeptides was determined by real-time PCR on a range of secretory, immune, reproductive, gastrointestinal and respiratory tissues, as well as BLAST searches of the milk transcriptome. Opportunistic tissue samples for real-time PCR were collected from Taronga Zoo (Sydney) from devils which were subject to euthanasia due to old age and advanced disease. The mature peptides of all six devil cathelicidins were synthesised by ChinaPeptides Co. Ltd. and their antimicrobial activity against bacterial and fungal pathogens determined by broth microdilution susceptibility assay according to clinical laboratory standards institute guidelines. Antimicrobial activity was expressed as minimum inhibitory concentration (MIC). Cytotoxicity was assessed in the human cell line A549 and haemolytic activity determined against human blood. Statistical significance of peptide effect on cell survival in comparison to the untreated control was calculated using a one sample t-test. Pouch microbiome analysis was performed on swabs from the pouch of lactating and non-lactating devils to detect changes in microbe populations. Pouch swab collection was carried out in accordance with the Save the Tasmanian Devil Program and was approved by the Animal Ethics Committee of the University of Sydney (permit number 681). […]
(§2) base (YNB) for fungi, from a concentration of 64μg/mL to 0.125μg/mL in a final volume of 100 μL .
(§3) Two antibiotics, ampicillin and tetracycline, were included as a positive control for bacteria, and the antifungal drug fluconazole for fungi. A well containing cells and media only was used as a “no drug” control to ensure that cultures grew normally. Bacteria were subcultured on Mueller Hinton agar (MHA) or Sheep blood agar (BA) for 24 hours at 35 °C for Staphylococcus spp., Pseudomonas spp., Enterococcus spp. and E.coli, with 5% CO2 for Streptococcus spp., K.pneumoniae, P.multocida, L.monocytogenes and N.asteroides. Similarly, fungi were subcultured on Sabouraud agar (SAB) at 35 °C for 24 hours prior to the test. Colonies were resuspended in saline and the OD530 measured with a McFarland reader. If necessary the suspension was diluted to 0.45-0.55 McFarland units with saline. […] Assays Antimicrobial activity was expressed as minimum inhibitory concentration (MIC), which was defined as the lowest concentration of cathelicidin preventing visible growth, relative to the negative control. […]
(§4) 570nm and 620nm using the Victor 3 multilabel plate reader (PerkinElmer). […] To x i city of cathelicidins was calculated according to Invitrogen recommendations and expressed as percentage cell survival compared to the untreated growth control. […]
(§5) Haemolytic activity was assessed using 10mL of human blood collected into potassium -ED T A vacutainers (BD). […]

The next assay has as its system P. aeruginosa ATCC 27853. Nature of the assay: microbe, parasite or virus in culture. It counts as cell-based, Pseudomonas aeruginosa. The following applies: ATCC 27853, 24 h. As for the experimental part: as §1, §2, §3, §4, §5
The next assay has as its system E. faecalis. It is filed as cell-based, Enterococcus faecalis. The following applies: broth microdilution (CLSI), 64 to 0.125 μg/mL, 24 h at 35 °C; human clinical isolate. As for the experimental part:
as §1, §2
(§6) Two antibiotics, ampicillin and tetracycline, were included as a positive control for bacteria, and the antifungal drug fluconazole for fungi. A well containing cells and media only was used as a “no drug” control to ensure that cultures grew normally. Bacteria were subcultured on Mueller Hinton agar (MHA) or Sheep blood agar (BA) for 24 hours at 35 °C for Staphylococcus spp., Pseudomonas spp., Enterococcus spp. and E.coli, with 5% CO2 for Streptococcus spp., K.pneumoniae, P.multocida, L.monocytogenes and N.asteroides. Similarly, fungi were subcultured on Sabouraud agar (SAB) at 35 °C for 24 hours prior to the test. Colonies were resuspended in saline and the OD530 measured with a McFarland reader. If necessary the suspension was diluted to 0.45-0.55 McFarland units with saline. Following a 1:150 dilution for bacteria and twostep dilution for fungi (1:50, 1:20), 100 μL of microorganisms (1x106 – 5 x10^5 cells/mL) were pipetted into wells 2-12, the first well acting as a negative control. Colony counts were performed using a 1:1000 dilution for bacteria and 1:10 for fungi spread onto MHA/BA or SAB plates respectively. The 96 well microdilution and agar plates were incubated for 24 hours at 35 °C (Escherichia coli, Staphylococcus spp., Enterococcus spp. and Pseudomonas spp.), with 5% CO2 (Streptococcus spp. Pasteurella multocida, Klebsiella pneumoniae, Listeria monocytogenes a nd Nocardia asteroids) for bacteria, and 35 °C for 48 hours (Candida spp .) or 72 hours (Cryptococcus spp.) for fungi. Assays Antimicrobial activity was expressed as minimum inhibitory concentration (MIC), which was defined as the lowest concentration of cathelicidin preventing visible growth, relative to the negative control. […]
(§7) DMEM and positive control of dimethylsulfoxide (DMSO) (1%) were also included. Following incubation for a further 24 hours, cell viability was determined using alamar blue (Invitrogen) which was added to each well. The plates were incubated for 24 hours, then the absorption measured at 570nm and 620nm using the Victor 3 multilabel plate reader (PerkinElmer). The assay was performed on two separate occasions. To x i city of cathelicidins was calculated according to Invitrogen recommendations and expressed as percentage cell survival compared to the untreated growth control. A significant difference between cathelicidin treated and control cell survival was tested using a o ne sample t-test (p<0.05).
(§8) Haemolytic activity was assessed using 10mL of human blood collected into potassium -ED T A […]
(§9) vacutainers (BD). […]
(In general: Broth dilution looks for growth in wells or tubes with falling amounts of substance.)

Assay [1] deals with Vancomycin resistant E. faecalis (VREF). It is filed as cell-based, Enterococcus faecalis. The following applies: broth microdilution (CLSI), 64 to 0.125 μg/mL, 24 h at 35 °C, human clinical isolate. As for the experimental part: as §1, §2, §6, §7, §8, §9
Another assay deals with C. albicans. It counts as cell-based. The following applies: broth microdilution (CLSI), YNB, 64 to 0.125 μg/mL, 48 hours at 35 °C; human clinical isolate. As for the experimental part:
as §1, §2, §6, §7, §8, §9

A further assay concerns C. glabrata. It is filed as cell-based. The following applies: broth microdilution (CLSI), YNB, 64 to 0.125 μg/mL, 48 hours at 35 °C; human clinical isolate. As for the experimental part:
as §1, §2, §6, §7, §8, §9

The test system of another assay is N. asteroides*. It counts as cell-based. The note with it: broth microdilution (CLSI), 64 to 0.125 μg/mL, 24 h at 35 °C with 5% CO2; animal isolate. As for the experimental part:
as §1, §2, §6, §7, §8, §9

The subject of another assay is S. agalactiae. It counts as cell-based. The following applies: broth microdilution (CLSI), 64 to 0.125 μg/mL, 24 h at 35 °C with 5% CO2; human clinical isolate. As for the experimental part:
as §1, §2, §6, §7, §8, §9

Another assay deals with S. equi*. It counts as cell-based. The following applies: broth microdilution (CLSI), 64 to 0.125 μg/mL, 24 h at 35 °C with 5% CO2; animal isolate. As for the experimental part: as §1, §2, §6, §7, §8, §9
In another assay the test system is S. lutetiensis. It is filed as cell-based. The following applies: broth microdilution (CLSI), 64 to 0.125 μg/mL, 24 h at 35 °C with 5% CO2; human clinical isolate. As for the experimental part: as §1, §2, §6, §7, §8, §9
The next assay concerns S. mutans. It counts as cell-based. The following applies: broth microdilution (CLSI), 64 to 0.125 μg/mL, 24 h at 35 °C with 5% CO2; human clinical isolate. As for the experimental part: as §1, §2, §6, §7, §8, §9
In a further assay the test system is S. oralis/mitis group. It is filed as cell-based. The following applies: broth microdilution (CLSI), 64 to 0.125 μg/mL, 24 h at 35 °C with 5% CO2; human clinical isolate. As for the experimental part: as §1, §2, §6, §7, §8, §9
The subject of the next assay is S. pyogenes ATCC 19615. It is filed as cell-based. The following applies: broth microdilution (CLSI), 64 to 0.125 μg/mL, 24 h at 35 °C with 5% CO2; ATCC strain. As for the experimental part:
as §1, §2, §6, §7, §8, §9

The subject of another assay is C. krusei ATCC 6258. It is filed as cell-based, Candida krusei. The note with it: broth microdilution (CLSI), YNB, 64 to 0.125 μg/mL, 48 hours at 35 °C; ATCC strain. As for the experimental part: as §1, with “t-test.” for “t-test. Pouch microbiome analysis was performed on swabs from the pouch of lactating and non-lactating devils to detect changes in microbe populations. Pouch swab collection was carried out in accordance with the Save the Tasmanian Devil Program and was approved by the Animal Ethics Committee of the University of Sydney (permit number 681).”
(§10) Two antibiotics, ampicillin and tetracycline, were included as a positive control for bacteria, and the antifungal drug fluconazole for fungi. […] Colonies were resuspended in saline and the OD530 measured with a McFarland reader. […] Assays Antimicrobial activity was expressed as minimum inhibitory concentration (MIC), which was defined as the lowest concentration of cathelicidin preventing visible growth, relative to the negative control. […]
(§11) DMEM and positive control of dimethylsulfoxide (DMSO) (1%) were also included. Following incubation for a further 24 hours, cell viability was determined using alamar blue (Invitrogen) which was added to each well. The plates were incubated for 24 hours, then the absorption measured at 570nm and 620nm using the Victor 3 multilabel plate reader (PerkinElmer). […] To x i city of cathelicidins was calculated according to Invitrogen recommendations and expressed as percentage cell survival compared to the untreated growth control. […]
as §8

The test system of the next assay is C. neoformans. It is filed as cell-based, Cryptococcus neoformans. The note with it: broth microdilution (CLSI), YNB, 64 to 0.125 μg/mL, 72 hours at 35 °C; human clinical isolate. As for the experimental part: as §1, with “t-test.” for “t-test. Pouch microbiome analysis was performed on swabs from the pouch of lactating and non-lactating devils to detect changes in microbe populations. Pouch swab collection was carried out in accordance with the Save the Tasmanian Devil Program and was approved by the Animal Ethics Committee of the University of Sydney (permit number 681).”
as §10, §11, §8

The next assay has as its system C. gattii. It is filed as cell-based, Cryptococcus gattii. The following applies: broth microdilution (CLSI), YNB, 64 to 0.125 μg/mL, 72 hours at 35 °C; human clinical isolate. As for the experimental part:
as §1, with “t-test.” for “t-test. Pouch microbiome analysis was performed on swabs from the pouch of lactating and non-lactating devils to detect changes in microbe populations. Pouch swab collection was carried out in accordance with the Save the Tasmanian Devil Program and was approved by the Animal Ethics Committee of the University of Sydney (permit number 681).”
as §10, §11, §8

Regarding “KRMGIFHLFWAGLRKLGNLIKNKIQQGIENFLG [Saha-CATH3]”, the MIC (against E. coli ATCC 25922; in the assay with P. aeruginosa ATCC 27853; with E. faecalis; in assay [1]; against C. albicans; with C. glabrata) was above 64 µg/mL each time. Moreover, the MIC in the assay on N. asteroides*, in the assay with S. agalactiae, against S. equi*, in the assay with S. lutetiensis, in the assay on S. mutans and against S. oralis/mitis group was above 64 µg/mL throughout. For the same sequence, the MIC is above 64 µg/mL against S. pyogenes ATCC 19615, above 64 µg/mL against C. krusei ATCC 6258, 16 µg/mL with C. neoformans and above 64 µg/mL against C. gattii.

“KRIRFFERIRDRLRDLGNRIKNRIRDFFS [Saha-CATH6]”: the MIC in the assay on E. coli ATCC 25922 was above 64 µg/mL; in the assay with P. aeruginosa ATCC 27853, above 64 µg/mL; in the assay with E. faecalis, above 64 µg/mL; in assay [1], 64 µg/mL; against C. albicans, above 64 µg/mL; against C. glabrata it was above 64 µg/mL. Besides, the MIC is above 64 µg/mL against N. asteroides*; above 64 µg/mL with S. agalactiae; above 64 µg/mL against S. equi*; above 64 µg/mL in the assay on S. lutetiensis; above 64 µg/mL against S. mutans; 64 µg/mL with S. oralis/mitis group. Moreover, the MIC with S. pyogenes ATCC 19615, with C. krusei ATCC 6258, against C. neoformans and in the assay on C. gattii was 64 µg/mL throughout.

Consider KRIGLIRLIGKILRGLRRLG [Saha-CATH5], for which the MIC against E. coli ATCC 25922 is 32 µg/mL; with P. aeruginosa ATCC 27853, above 64 µg/mL; in the assay with E. faecalis, above 64 µg/mL; in assay [1], 32 µg/mL; in the assay on C. albicans, above 64 µg/mL; against C. glabrata, above 64 µg/mL. Further, the MIC is above 64 µg/mL with N. asteroides*; 64 µg/mL in the assay with S. agalactiae; 64 µg/mL against S. equi*; above 64 µg/mL against S. lutetiensis; above 64 µg/mL against S. mutans; 64 µg/mL in the assay with S. oralis/mitis group. Also, the MIC against S. pyogenes ATCC 19615 was 32 µg/mL; against C. krusei ATCC 6258, 64 µg/mL; in the assay with C. neoformans, 32 µg/mL; in the assay with C. gattii, 64 µg/mL.
